From patent US10975101B2, “Ultra-potent vinca alkaloids: added molecular complexity further disrupts the tublin dimer-dimer interface” (priority 2016, dated 2021)
Where two headings read alike, the source gives them in different places.

How the values were obtained:
[1] = test system: HCT116/VM46 (a vinblastine-resistant strain of HCT116) cells; conditions: previously reported (footnote a, Barker et al. 2013) or background art table; cited from earlier work
[2] = test system: HCT116 (human colorectal carcinoma) cells; conditions: cited from earlier work; for IC50: previously reported (footnote a, Barker et al. 2013) or background art table; for less potent than vinblastine: cell growth inhibition, background art (Leggans 2012; Barker 2012)
[3] = test system: HCT116 (human colorectal carcinoma) cells; assay: cells; type: cell-based; conditions: read-out: IC50, HCT116
Protocol: (§1) Compounds were tested for their cell growth inhibition of L1210 (ATCC no. CCL-219, mouse lymphocytic leukemia) cells, HCT116 (ATCC no. CCL-247, human colorectal carcinoma) cells, and HCT116/VM46 (a vinblastine-resistant strain of HCT116) cells in culture. A population of cells (>1×10^6 cells/mL as determined with a hemocytometer) was diluted with an appropriate amount of Dulbecco's Modified Eagle Medium (DMEM, Gibco) containing 10% fetal bovine serum (FBS, Gibco) to a final concentration of 30000 cells/mL.
(§2) To each well of a 96-well plate (Corning Costar), 100 μL of the cell media solution was added with a multichannel pipet. The cultures were incubated at 37° C. in an atmosphere of 5% CO2 and 95% humidified air for 24 hours. The test compounds were added to the plate as follows: test substances were diluted in DMSO to a concentration of 1 mM and 10-fold serial dilutions were performed on a separate 96-well plate. Fresh culture medium (100 μL) was added to each well of cells to constitute 200 μL of medium per well followed by 2 μL of each test agent. Compounds were tested in duplicate (n=2-18 times) at six concentrations between 0-1000 nM or 0-10000 nM. Following addition, cultures were incubated for an additional 72 hours.
(§3) A phosphatase assay was used to establish the IC50 values as follows: the media in each cell was removed and 100 μL of phosphatase solution (100 mg phosphatase substrate in 30 mL of 0.1 M NaOAc, pH 5.5, 0.1% Triton X-100 buffer) was added to each well. The plates were incubated at 37° C. for either 5 minutes (L1210) or 15 minutes (HCT116 and HCT116/VM46). After the given incubation time, 50 μL of 0.1 N NaOH was added to each well and the absorption at 405 nm was determined using a 96 well plate reader. As the absorption is directly proportional to the number of living cells, the IC50 values were calculated and the reported values represent of the average of 4-36 determinations (SD±10%).

[4] = test system: L1210 (mouse lymphocytic leukemia) cells; assay: Cell growth inhibition assay, L1210; type: cell-based; conditions: 72 hours incubation, phosphatase assay
Protocol: as §1, §2, §3

[5] = test system: vinblastine sensitive tumor cell lines (L1210 and HCT116); assay: Cell growth inhibition, vinblastine-sensitive lines stated together; type: cell-based; conditions: L1210 and HCT116, range over both lines; read-out: IC50's against vinblastine-sensitive tumor cell lines
Protocol: as §1, §2, §3

[6] = test system: HCT116/VM46 (a vinblastine-resistant strain of HCT116) cells; assay: Cell growth inhibition assay, HCT116/VM46; type: cell-based, human; conditions: 72 hours incubation, phosphatase assay, Pgp-overexpressing resistant line
Protocol: as §1, §2, §3

[7] = 72 hours incubation, phosphatase assay

Row | SMILES | IC50 [3, 7] | IC50 [4] | IC50 [6] | other results
1 | CC[C@]1(NC(N)=O)C[C@H]2CN(CCc3c([nH]c4ccccc34)[C@@](C(=O)OC)(c3cc4c(cc3OC)N(C)[C@H]3[C@@](O)(C(=O)OC)[C@H](OC(C)=O)[C@]5(CC)C=CCN6CC[C@]43[C@@H]65)C2)C1 [Compound 7, reference compound] | – | – | – | IC50 [1]: 4400 nM; IC50 [2]: 7.5 nM
2 | CC[C@]1(NC(=O)N2Cc3ccc(NC(=O)c4ccccc4)cc3C2)C[C@H]2CN(CCc3c([nH]c4ccccc34)[C@@](C(=O)OC)(c3cc4c(cc3OC)N(C)[C@H]3[C@@](O)(C(=O)OC)[C@H](OC(C)=O)[C@]5(CC)C=CCN6CC[C@]43[C@@H]65)C2)C1 [Compound 50] | 0.62 nM | 0.54 nM | 13 nM | IC50 [5]: 0.5 to 0.6 nM
3 | CC[C@]1(N=[N+]=[N-])C[C@H]2CN(CCc3c([nH]c4ccccc34)[C@@](C(=O)OC)(c3cc4c(cc3OC)N(C)[C@H]3[C@@](O)(C(=O)OC)[C@H](OC(C)=O)[C@]5(CC)C=CCN6CC[C@]43[C@@H]65)C2)C1 [Compound 5] | – | – | – | IC50 [1]: 5500 nM; less potent than vinblastine [2]: 100 fold; IC50 [2]: 690 nM
4 | CC[C@]1(NC(=O)N2Cc3ccc(NC(C)=O)cc3C2)C[C@H]2CN(CCc3c([nH]c4ccccc34)[C@@](C(=O)OC)(c3cc4c(cc3OC)N(C)[C@H]3[C@@](O)(C(=O)OC)[C@H](OC(C)=O)[C@]5(CC)C=CCN6CC[C@]43[C@@H]65)C2)C1 [Compound 40] | 0.5 nM | 0.47 nM | 9.4 nM | IC50 [5]: 0.47 to 0.5 nM
5 | CC[C@@H]1C[C@H]2CN(CCc3c([nH]c4ccccc34)[C@@](C(=O)OC)(c3cc4c(cc3OC)N(C)[C@H]3[C@@](O)(C(=O)OC)[C@H](OC(C)=O)[C@]5(CC)C=CCN6CC[C@]43[C@@H]65)C2)C1 [Compound 4, reference compound] | – | – | – | IC50 [1]: 600 nM; IC50 [2]: 60 nM
6 | CC[C@]1(NC(=O)N2Cc3ccc(NC(=O)C(C)(C)C)cc3C2)C[C@H]2CN(CCc3c([nH]c4ccccc34)[C@@](C(=O)OC)(c3cc4c(cc3OC)N(C)[C@H]3[C@@](O)(C(=O)OC)[C@H](OC(C)=O)[C@]5(CC)C=CCN6CC[C@]43[C@@H]65)C2)C1 [Compound 44] | 0.47 nM | 0.39 nM | 5.3 nM | –
7 | CC[C@]1(NC(=O)N2Cc3ccc(NC(=O)C=C(C)C)cc3C2)C[C@H]2CN(CCc3c([nH]c4ccccc34)[C@@](C(=O)OC)(c3cc4c(cc3OC)N(C)[C@H]3[C@@](O)(C(=O)OC)[C@H](OC(C)=O)[C@]5(CC)C=CCN6CC[C@]43[C@@H]65)C2)C1 [Compound 48] | 0.47 nM | 0.43 nM | 7.4 nM | –
8 | CC[C@]1(NC(=O)N2Cc3ccc(Cl)cc3C2)C[C@H]2CN(CCc3c([nH]c4ccccc34)[C@@](C(=O)OC)(c3cc4c(cc3OC)N(C)[C@H]3[C@@](O)(C(=O)OC)[C@H](OC(C)=O)[C@]5(CC)C=CCN6CC[C@]43[C@@H]65)C2)C1 [Compound 32] | 0.55 nM | 0.5 nM | 5.7 nM | –
9 | CC[C@]1(NC(=O)N2Cc3ccc(NC(=O)c4ccccn4)cc3C2)C[C@H]2CN(CCc3c([nH]c4ccccc34)[C@@](C(=O)OC)(c3cc4c(cc3OC)N(C)[C@H]3[C@@](O)(C(=O)OC)[C@H](OC(C)=O)[C@]5(CC)C=CCN6CC[C@]43[C@@H]65)C2)C1 [Compound 55] | 0.49 nM | 0.37 nM | 3.6 nM | –
10 | CC[C@]1(N)C[C@H]2CN(CCc3c([nH]c4ccccc34)[C@@](C(=O)OC)(c3cc4c(cc3OC)N(C)[C@H]3[C@@](O)(C(=O)OC)[C@H](OC(C)=O)[C@]5(CC)C=CCN6CC[C@]43[C@@H]65)C2)C1 [Compound 6, 20′-aminovinblastine] | – | – | – | IC50 [1]: > 10000 nM; less potent than vinblastine [2]: 100 fold; IC50 [2]: 600 nM
11 | CC[C@]1(NC(=O)N2CC=CC2)C[C@H]2CN(CCc3c([nH]c4ccccc34)[C@@](C(=O)OC)(c3cc4c(cc3OC)N(C)[C@H]3[C@@](O)(C(=O)OC)[C@H](OC(C)=O)[C@]5(CC)C=CCN6CC[C@]43[C@@H]65)C2)C1 [Compound 22] | 0.5 nM | 0.53 nM | 5.7 nM | –
12 | CCC(=O)Nc1ccc2c(c1)CN(C(=O)N[C@@]1(CC)C[C@H]3CN(CCc4c([nH]c5ccccc45)[C@@](C(=O)OC)(c4cc5c(cc4OC)N(C)[C@H]4[C@@](O)(C(=O)OC)[C@H](OC(C)=O)[C@]6(CC)C=CCN7CC[C@]54[C@@H]76)C3)C1)C2 [Compound 41] | 0.54 nM | 0.46 nM | 7.7 nM | –
13 | CC[C@]1(NC(=O)N2CCCCCC2)C[C@H]2CN(CCc3c([nH]c4ccccc34)[C@@](C(=O)OC)(c3cc4c(cc3OC)N(C)[C@H]3[C@@](O)(C(=O)OC)[C@H](OC(C)=O)[C@]5(CC)C=CCN6CC[C@]43[C@@H]65)C2)C1 [Compound 24] | 3.1 nM | 4.3 nM | 35 nM | –
14 | CC[C@]1(NC(=O)N2CCC(N(C)C)C2)C[C@H]2CN(CCc3c([nH]c4ccccc34)[C@@](C(=O)OC)(c3cc4c(cc3OC)N(C)[C@H]3[C@@](O)(C(=O)OC)[C@H](OC(C)=O)[C@]5(CC)C=CCN6CC[C@]43[C@@H]65)C2)C1 (single isomer, unassigned) [Compound 10] | 20 nM | 20 nM | 500 nM | –
15 | CC[C@]1(NC(=O)N2Cc3ccc(NC(=O)c4ccc(C(C)C)cc4)cc3C2)C[C@H]2CN(CCc3c([nH]c4ccccc34)[C@@](C(=O)OC)(c3cc4c(cc3OC)N(C)[C@H]3[C@@](O)(C(=O)OC)[C@H](OC(C)=O)[C@]5(CC)C=CCN6CC[C@]43[C@@H]65)C2)C1 [Compound 53] | 4.2 nM | 2.9 nM | 60 nM | –
16 | CC[C@]1(NC(=O)N2CCc3ccccc3CC2)C[C@H]2CN(CCc3c([nH]c4ccccc34)[C@@](C(=O)OC)(c3cc4c(cc3OC)N(C)[C@H]3[C@@](O)(C(=O)OC)[C@H](OC(C)=O)[C@]5(CC)C=CCN6CC[C@]43[C@@H]65)C2)C1 [Compound 27] | 0.69 nM | 0.59 nM | 6.2 nM | –
17 | CC[C@]1(NC(=O)N2C3CCC2CC3)C[C@H]2CN(CCc3c([nH]c4ccccc34)[C@@](C(=O)OC)(c3cc4c(cc3OC)N(C)[C@H]3[C@@](O)(C(=O)OC)[C@H](OC(C)=O)[C@]5(CC)C=CCN6CC[C@]43[C@@H]65)C2)C1 [Compound 26] | 20 nM | 40 nM | 250 nM | –
18 | CCC1(NC(=O)N2Cc3cc(OC)c(OC)cc3C2)C[C@H]2CN(CCc3c([nH]c4ccccc34)[C@@](C(=O)OC)(c3cc4c(cc3OC)N(C)[C@H]3C(O)(C(=O)OC)[C@H](OC(C)=O)[C@]5(CC)C=CCN6CC[C@]43[C@@H]65)C2)C1 (stereo partly drawn) [Compound 54] | – | – | – | IC50 ([3]; Homo sapiens, HCT-116, 72 h): 0.45 nM; IC50 ([4]; Mus musculus, L1210): 0.42 nM; IC50 ([6]; Homo sapiens, HCT-116/VM46): 5.2 nM
19 | CCC1(NC(=O)N2CCC(Br)C2)CC2CN(CCc3c([nH]c4ccccc34)C(C(=O)OC)(c3cc4c(cc3OC)N(C)C3C(O)(C(=O)OC)C(OC(C)=O)C5(CC)C=CCN6CCC43C65)C2)C1 (mixture of isomers) [Compound 19] | 0.9 nM | 3.1 nM | 25 nM | –
20 | CC[C@]1(NC(=O)N2CCC(C#N)C2)C[C@H]2CN(CCc3c([nH]c4ccccc34)[C@@](C(=O)OC)(c3cc4c(cc3OC)N(C)[C@H]3[C@@](O)(C(=O)OC)[C@H](OC(C)=O)[C@]5(CC)C=CCN6CC[C@]43[C@@H]65)C2)C1 (single isomer, unassigned) [Compound 20] | 1.5 nM | 3.7 nM | 60 nM | –
